Measured values as given in patent US12065416B2, “cGAS antagonist compounds” (IMMUNESENSOR THERAPEUTICS, INC., priority 2016, dated 2024).

Assays:
[1] = target: T1, recombinant cGAS (aa147-522) (Homo sapiens, UniProt Q8N884); test: In vitro assay for inhibition of cGAS activity (ATP consumption, Kinase Glo); format: biochemical; settings: 37° C. 20 minutes, read-out: Activity (Inhibition of cGAS enzyme activity in vitro, IC50)
T1 construct: recombinant cGAS (aa147-522); His6-SUMO (N, cleaved yes); made in house; host or cells: E. coli BL21/pLys
T1 sequence (Q8N884 147-522): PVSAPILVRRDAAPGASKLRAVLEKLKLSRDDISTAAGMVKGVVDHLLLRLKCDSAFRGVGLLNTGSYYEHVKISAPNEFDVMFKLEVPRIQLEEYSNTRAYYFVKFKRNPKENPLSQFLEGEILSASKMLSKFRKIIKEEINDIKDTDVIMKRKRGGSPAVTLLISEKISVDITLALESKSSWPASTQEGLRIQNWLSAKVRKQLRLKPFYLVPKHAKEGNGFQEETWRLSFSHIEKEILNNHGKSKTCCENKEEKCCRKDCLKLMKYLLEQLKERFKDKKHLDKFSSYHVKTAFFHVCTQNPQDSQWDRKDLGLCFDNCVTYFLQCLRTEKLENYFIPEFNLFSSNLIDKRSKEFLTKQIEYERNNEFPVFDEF
Procedure, shortened: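 Human cGAS (aa147-522) at 1.5 ng/μL incubated with serially diluted compound at 37° C for 20 min; remaining ATP read by Kinase Glo luminescence. IC50 from percent ATP consumption plotted against log compound concentration.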

[2] = system: cGAS activity in THP1 cells; test: Cellular assay: ISRE-Gaussia luciferase reporter THP1 cells transfected with ISD (Interferon Stimulatory DNA); format: cell-based; settings: Homo sapiens, THP-1; ISRE-Gaussia luciferase reporter THP1 cells transfected with 2 μg/mL ISD, 16 hours; read-out: THP1-ISD (Inhibition of cGAS activity in THP1 cells, IC50)
Method: (§1) A reporter THP1 cell line harboring a gene encoding Gaussia Luciferase under the control of 5 tandem repeats of interferon-stimulated response elements (ISRE) was used to test inhibition of cGAS activity by synthetic compounds in human cells. These cells were plated on 96-well plates at 0.3×10^6/well and incubated with various concentrations of compounds or DMSO for 5 min, followed by transfection of 2 μg/mL of ISD (Interferon Stimulatory DNA, a 45 bp DNA oligo) or mock transfected using lipofectamine 2000 (Life Technology) method, according to manufacturer's instructions. 16 hours later, 15 μL of the media from each well is transferred to a new plate, 50 μL of solution containing 50 mM Hepes-NaOH, 50 mM NaCl, 10 mM EDTA, 1 μM of coeleanterazine was added to each well and luminescence was measured immediately. Fold increase in luminescence compared to mock transfection is plotted against concentrations of each compound, and IC50 is calculated using Graphpad. To evaluate the specificity of a compound, the same procedure was performed except that cells were transfected with 2 μg/mL poly(I:C) or infected with Sendai Virus (SeV) at 50 Unit/mL, which are known to activate the RIG-I-MAVS pathway. A specific inhibitory compound should inhibit interferon induction by DNA but have minimal effect on poly(I:C) or Sendai virus induced interferon reporter gene expression.

[3] = system: RIG-I-MAVS pathway; test: Specificity assay: ISRE reporter THP1 cells infected with Sendai Virus (SeV); format: cell-based; settings: Homo sapiens, THP-1; ISRE-Gaussia luciferase reporter THP1 cells infected with Sendai Virus (SeV) at 50 Unit/mL
Method: as §1

SMILES	IC50 [1]	IC50 [2]	IC50 [3]
COCCNc1ncc(COc2cc(/C=C3\Sc4ncccc4C3=O)c(Br)cc2O)cn1 [Ex197]	≤ 500 nM	2500 to 10000 nM	≥ 10000 nM
COc1cc(/C=C2\Sc3ncccc3C2=O)c(Br)c(F)c1O [Ex75]	≤ 500 nM	2500 to 10000 nM	≥ 10000 nM
Nc1ncc(COc2cc(/C=C3\Sc4ncccc4C3=O)c(Br)cc2O)cn1 [Ex194]	≤ 500 nM	≤ 2500 nM	≥ 10000 nM
O=C1/C(=C/c2cc(OCc3cnc(NCc4cccnc4)nc3)c(O)c(F)c2Br)Sc2ncccc21 [ExA3]	≤ 500 nM	2500 to 10000 nM	≥ 10000 nM
CN1C(=O)S/C(=C\c2cc(OCc3ccnc4[nH]cnc34)c(O)cc2Br)C1=O [Ex68]	≤ 500 nM	≤ 2500 nM	≥ 10000 nM
CC(Oc1cc(/C=C2\SC(=O)N(C)C2=O)c(Br)c(F)c1O)c1cnc(N)nc1C(F)(F)F (stereo not drawn) [ExA7]	≤ 500 nM	2500 to 10000 nM	≥ 10000 nM
CN1C(=O)S/C(=C\c2cc(OCc3cnc4ccccc4c3)c(O)cc2Br)C1=O [Ex177]	500 to 10000 nM	2500 to 10000 nM	≥ 10000 nM
CN1C(=O)S/C(=C\c2cc(OCc3cnc(NC4CC4)nc3)c(O)cc2Br)C1=O [Ex149]	500 to 10000 nM	≤ 2500 nM	≥ 10000 nM
CN1C(=O)S/C(=C\c2cc(OCCc3cnc(N)nc3)c(O)c(F)c2Br)C1=O [ExB3]	≤ 500 nM	≤ 2500 nM	≥ 10000 nM
CC(C)n1ccc(COc2cc(/C=C3\SC(=O)N(C)C3=O)c(Br)cc2O)cc1=O [Ex135]	500 to 10000 nM	2500 to 10000 nM	≥ 10000 nM
C[S+]([O-])c1ncc(COc2cc(/C=C3\Sc4ncccc4C3=O)c(Br)cc2O)cn1 (stereo not drawn) [Ex216]	≤ 500 nM	≤ 2500 nM	2500 to 10000 nM
COc1cc(/C=C2\SC(=O)N(C)C2=O)c(I)cc1O [Ex65]	≤ 500 nM	2500 to 10000 nM	≥ 10000 nM
CN1C(=O)S/C(=C\c2cc(OCc3cnc(N)nc3)c(O)cc2Br)C1=O [Ex147]	≤ 500 nM	≤ 2500 nM	≥ 10000 nM
Nc1ncncc1COc1cc(/C=C2\Sc3ncccc3C2=O)c(Br)cc1O [Ex73]	≤ 500 nM	2500 to 10000 nM	≥ 10000 nM
COc1cc(/C=C2\SC(=O)N(C)C2=O)c(Br)cc1O [Ex28]	≤ 500 nM	≤ 2500 nM	≥ 10000 nM
O=C1/C(=C/c2cc(OC(F)(F)F)c(O)cc2Br)Sc2ncccc21 [Ex70]	500 to 10000 nM	2500 to 10000 nM	≥ 10000 nM
CNc1ncc(COc2cc(/C=C3\SC(=O)N(C)C3=O)c(Br)cc2O)cn1 [Ex148]	≤ 500 nM	≤ 2500 nM	≥ 10000 nM
Cc1nc(N)ncc1COc1cc(/C=C2\SC(=O)N(C)C2=O)c(Br)c(F)c1O [Ex108]	≤ 500 nM	≤ 2500 nM	≥ 10000 nM
COc1cc(/C=C2\SC(=O)N(C)C2=O)c(Br)c(F)c1O [Ex63]	≤ 500 nM	2500 to 10000 nM	≥ 10000 nM
CN1C(=O)S/C(=C\c2cc(OCc3cnc([S+](C)[O-])nc3)c(O)cc2Br)C1=O (stereo not drawn) [Ex213]	≤ 500 nM	2500 to 10000 nM	≥ 10000 nM
CN1C(=O)S/C(=C\c2cc3c(-c4cnc(N)nc4)c[nH]c3c(F)c2Br)C1=O [ExB40]	≤ 500 nM	2500 to 10000 nM	≥ 10000 nM
O=C1/C(=C/c2cc(OCc3cncnc3)c(O)cc2Br)Sc2ncccc21 [Ex193]	≤ 500 nM	2500 to 10000 nM	≥ 10000 nM
CN1C(=O)S/C(=C\c2cc(OCc3cnc[nH]3)c(O)cc2Br)C1=O [Ex137]	500 to 10000 nM	2500 to 10000 nM	≥ 10000 nM

SMILES	IC50 [1]	IC50 [2]	IC50 [3]
C[S+]([O-])c1ncc(COc2cc(/C=C3\Sc4ncccc4C3=O)c(Br)c(F)c2O)cn1 (stereo not drawn) [ExA15]	500 to 10000 nM	2500 to 10000 nM	≥ 10000 nM
CN1C(=O)S/C(=C\c2cc(O/C=C/c3cnc(N)nc3)c(O)c(F)c2Br)C1=O [ExB2]	≤ 500 nM	≤ 2500 nM	≥ 10000 nM
Cc1ncc(COc2cc(/C=C3\Sc4ncccc4C3=O)c(Br)c(F)c2O)cn1 [ExA4]	≤ 500 nM	≤ 2500 nM	≥ 10000 nM
O=C1/C(=C/c2cc(CC(F)(F)F)c(O)cc2Br)Sc2ncccc21 [ExB21]	≤ 500 nM	2500 to 10000 nM	≥ 10000 nM
Nc1ncc(COc2cc(/C=C3\Sc4ncccc4C3=O)c(Br)c(F)c2O)cn1 [Ex123]	≤ 500 nM	≤ 2500 nM	≥ 10000 nM
CN1C(=O)S/C(=C\c2cc(OCc3cn[nH]c3)c(O)cc2Br)C1=O [Ex92]	≤ 500 nM	≤ 2500 nM	≥ 10000 nM
CN1C(=O)S/C(=C\c2cc(OCc3cnc(N)nc3)c(Oc3cnc(N)s3)cc2Br)C1=O [Ex211]	500 to 10000 nM	2500 to 10000 nM	≥ 10000 nM
CN1C(=O)S/C(=C\c2cc(OCc3cnc(NCCO)nc3)c(O)c(F)c2Br)C1=O [Ex152]	≤ 500 nM	≤ 2500 nM	≥ 10000 nM
CC(Oc1cc(/C=C2\SC(=O)N(C)C2=O)c(Br)cc1O)c1cncnc1N (stereo not drawn) [Ex80]	≤ 500 nM	2500 to 10000 nM	≥ 10000 nM
CN1C(=O)S/C(=C\c2cc(OCc3cnc(NCc4ccccn4)nc3)c(O)cc2Br)C1=O [Ex155]	≤ 500 nM	2500 to 10000 nM	≥ 10000 nM
CNc1ncc(COc2cc(/C=C3\Sc4ncccc4C3=O)c(Br)cc2O)cn1 [Ex195]	≤ 500 nM	2500 to 10000 nM	≥ 10000 nM
CC(Oc1cc(/C=C2\Sc3ncccc3C2=O)c(Br)cc1O)c1cnc(N)nc1 (stereo not drawn) [Ex122]	≤ 500 nM	≤ 2500 nM	≥ 10000 nM
CN1C(=O)S/C(=C\c2cc(OCc3cnc(Cl)nc3)c(O)cc2Br)C1=O [Ex93]	≤ 500 nM	2500 to 10000 nM	≥ 10000 nM
CC(Oc1cc(/C=C2\SC(=O)N(C)C2=O)c(Br)c(F)c1O)c1cnc(Cl)nc1 (stereo not drawn) [ExA6]	≤ 500 nM	2500 to 10000 nM	2500 to 10000 nM
CN1C(=O)S/C(=C\c2cc3c(Cc4cnc(N)nc4)c[nH]c3c(F)c2Br)C1=O [ExB43]	≤ 500 nM	≥ 10000 nM	≥ 10000 nM
CN1C(=O)S/C(=C\c2cc(OCc3cnc(N)nc3)c(O)c(F)c2Br)C1=O [Ex81]	≤ 500 nM	≤ 2500 nM	≥ 10000 nM
O=C1/C(=C/c2cc(OCc3cnc(NCc4ccncc4)nc3)c(O)cc2Br)Sc2ncccc21 [Ex200]	≤ 500 nM	≤ 2500 nM	≥ 10000 nM
CN1C(=O)S/C(=C\c2cc(OCc3cncnc3N)c(O)cc2Br)C1=O [Ex141]	≤ 500 nM	≤ 2500 nM	≥ 10000 nM
CN1C(=O)S/C(=C\c2cc(Oc3ccc(N)nc3)c(O)cc2Br)C1=O [Ex234]	≥ 10000 nM	2500 to 10000 nM	≥ 10000 nM
CN1C(=O)S/C(=C\c2cc(OCc3cnc(NCc4ccncc4)nc3)c(O)cc2Br)C1=O [Ex157]	≤ 500 nM	2500 to 10000 nM	≥ 10000 nM
CN1C(=O)S/C(=C\c2cc(OCc3cncnc3)c(O)cc2Br)C1=O [Ex140]	≤ 500 nM	≤ 2500 nM	≥ 10000 nM
CN1C(=O)S/C(=C\c2cc(OCc3cnc(NN)nc3)c(O)cc2Br)C1=O [Ex184]	≤ 500 nM	≤ 2500 nM	≥ 10000 nM
Cc1nc(N)ncc1COc1cc(/C=C2\SC(=O)N(C)C2=O)c(Br)cc1O [Ex170]	≤ 500 nM	≤ 2500 nM	≥ 10000 nM
